Series [1] can be described thus: Solubility in water. It is filed as physicochemical. Here is the method:
Other anaesthetic agents are administered to the patient by means of injection. Although generally less desirable than inhaled agents for reasons of ease of administration and the maintenance of a controlled amount of the anaesthetic composition, these are used in an variety of applications. For example, propofol is a widely used anaesthetic administered to the patient by injection. The anaesthetic agents is propofol contained in an appropriate formulation. […] Propofol must be thoroughly distributed in any anaesthetic formulation, and generally brought in to solution, because the administration of propofol itself in to the patient's blood stream can cause severe problems.
Preparation of anaesthetic formulations of the invention is generally straightforward.
In addition, some poloxamers require increased temperatures in order to satisfactorily micellise in water. In general, concentrations of poloxamer of about 10% w/v are useful in the present invention, but concentrations of poloxamers, whether single or mixed, can be selected as appropriate and will generally be above 0.5% and below about 20%. More preferred concentrations are from 5% to 15%. Some poloxamers will begin to gel at higher concentrations, and any poloxamer concentration that gels at body temperature, especially when in association with propofol, should be avoided for injection purposes.

The conditions of series [2]: cited from earlier work.
Series [3] has as its system patients who have Parkinson's disease. As to conditions: cited from earlier work.
Series [4] can be described thus: Solubilisation of propofol in aqueous poloxamer solution (micellar).

Molecules are shown by their SMILES. “Also recorded” adds a separate entry of the source.

On to `CC(C)c1cccc(C(C)C)c1O` [propofol], for which, in series [1], the “solubility in water (in words)” value is reported as “virtually insoluble in water; also recorded: not readily soluble in water”. The “half-life in the bloodstream” value in series [2] (bloodstream, patient) is given as “nine”. Also, the “concentration in the body” value in series [2] (three days after propofol anaesthesia) is “less than 0.02 mg/kg bodyweight”. Further, the “duration of tremor reduction” value in series [3] (after propofol anaesthesia) is recorded as “up to three”. For the same molecule, the “effect on tremors (in words)” value in series [3] (after-effect of propofol anaesthesia) is reported as “reduction in tremors”. Moreover, the “maximum concentration of propofol” value in series [4] (10% w/w poloxamer in water, poloxamer P237) is reported as “about 3.2%”. In addition, the propofol dissolved in series [4] (poloxamer P407) turned out to be 1.7%.
